Experimental data published in PubChem BioAssay AID248 (DTP/NCI, 2004).
Several values for one entry are separate records, joined by “and”; a condition that tells them apart may be missing. Equal values may be shown once. Toxic doses and inconclusive results are not listed. Cut-off read from the data, not from the text of the source: active = T/C of 150% or more; inactive = T/C below 125%.

Tested on: L1210 leukemia ip in BDF1 mice, survival T/C
Test: NCI In Vivo Anticancer Drug Screen. Data for tumor model L1210 Leukemia (intraperitoneal) in B6D2F1 (BDF1) mice
Conditions: endpoint: mean survival time, higher = longer survival
Summary of the method: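 Read-out is survival time, reported as the treated-group measurement over the vehicle-control measurement.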

[1] = dose: 100.0 mg/kg/injection, schedule: Q01DX001 (ip), vehicle: saline
[2] = dose: 200.0 mg/kg/injection, schedule: Q01DX001 (ip), vehicle: saline
[3] = dose: 400.0 mg/kg/injection, schedule: Q01DX001 (ip), vehicle: saline
[4] = dose: 50.0 mg/kg/injection, schedule: Q01DX001 (ip), vehicle: saline
[5] = dose: 100.0 mg/kg/injection, schedule: Q01DX009 (ip), vehicle: saline
[6] = dose: 200.0 mg/kg/injection, schedule: Q01DX009 (ip), vehicle: saline
[7] = dose: 100.0 mg/kg/injection, schedule: Q04DX003 (ip), vehicle: saline
[8] = dose: 25.0 mg/kg/injection, schedule: Q01DX009 (ip), vehicle: saline with Tween-80
[9] = dose: 50.0 mg/kg/injection, schedule: Q01DX009 (ip), vehicle: saline with Tween-80
[10] = dose: 100.0 mg/kg/injection, schedule: Q01DX009 (ip), vehicle: saline with Tween-80
[11] = dose: 100.0 mg/kg/injection, schedule: Q04DX003 (ip), vehicle: saline with Tween-80
[12] = dose: 50.0 mg/kg/injection, schedule: Q01DX009 (ip), vehicle: saline
[13] = dose: 100.0 mg/kg/injection, schedule: Q04DX002 (ip), vehicle: Klucel (hydroxypropylcellulose) (HPC)
[14] = dose: 200.0 mg/kg/injection, schedule: Q04DX002 (ip), vehicle: Klucel (hydroxypropylcellulose) (HPC)
[15] = dose: 100.0 mg/kg/injection, schedule: Q01DX009 (ip), vehicle: Klucel (hydroxypropylcellulose) (HPC)
[16] = dose: 200.0 mg/kg/injection, schedule: Q01DX009 (ip), vehicle: Klucel (hydroxypropylcellulose) (HPC)
[17] = dose: 400.0 mg/kg/injection, schedule: Q01DX009 (ip), vehicle: Klucel (hydroxypropylcellulose) (HPC)
[18] = dose: 100.0 mg/kg/injection, schedule: Q01DX001 (ip), vehicle: carboxymethylcellulose (CMC)
[19] = dose: 200.0 mg/kg/injection, schedule: Q01DX001 (ip), vehicle: carboxymethylcellulose (CMC)
[20] = dose: 400.0 mg/kg/injection, schedule: Q01DX001 (ip), vehicle: carboxymethylcellulose (CMC)

Measured: T/C

CN1CC(=O)N=C1N
inactive: [1] 92 % of control | [2] 103 % of control | dose: 200.0 mg/kg/injection, schedule: Q01DX015 (ip), vehicle: saline 91 % of control | dose: 250.0 mg/kg/injection, schedule: Q#A X Z (ip), vehicle: water 109 % of control | [3] 92 % of control | dose: 400.0 mg/kg/injection, schedule: Q01DX015 (ip), vehicle: saline 121 % of control | dose: 500.0 mg/kg/injection, schedule: Q#A X Z (ip), vehicle: water 100 % of control | dose: 800.0 mg/kg/injection, schedule: Q01DX015 (ip), vehicle: saline 94 % of control | dose: 1250.0 mg/kg/injection, schedule: Q#A X Z (ip), vehicle: water 100 % of control | dose: 1600.0 mg/kg/injection, schedule: Q01DX015 (ip), vehicle: saline 100 % of control

CC(=O)C1(C)OC(c2ccc(F)cc2)=NC1=O (stereo not given)
inactive: [1] 102 % of control | [2] 102 % of control | [3] 98 % of control

NC(=S)N/N=C1/CCCCC12CCCCC2
inactive: [4] 116 % of control | [1] 91 % of control | [2] 124 % of control | [3] 100 % of control

CC1CCC2(CC1=O)C(C)CC(=O)C2C(C)C (stereo not given)
inactive: [5] 94 % of control | [6] 102 % of control | dose: 400.0 mg/kg/injection, schedule: Q01DX009 (ip), vehicle: saline 98 % of control

Cc1cccc(C)c1NC(=O)N(CCO)C1CCCCC1
inactive: [7] 102 % of control | dose: 200.0 mg/kg/injection, schedule: Q04DX003 (ip), vehicle: saline 112 % of control | dose: 400.0 mg/kg/injection, schedule: Q04DX003 (ip), vehicle: saline 104 % of control

CC1(N)CCC(C(C)(C)N)CC1 (stereo not given)
inactive: [8] 103 % of control | [9] 97 % of control | [10] 92 % of control

COC(=O)CCC(NC(=O)OCc1ccccc1)C(=O)O (stereo not given)
inactive: dose: 100.0 mg/kg/injection, schedule: Q04DX003 (ip), vehicle: Klucel (hydroxypropylcellulose) (HPC) 99 % of control | dose: 200.0 mg/kg/injection, schedule: Q04DX003 (ip), vehicle: Klucel (hydroxypropylcellulose) (HPC) 112 % of control

COc1ccccc1N1CCN(CC(O)COc2ccccc2C(C)=O)CC1 (stereo not given)
inactive: [8] 107 % of control | [9] 105 % of control | [10] 109 % of control | [11] 96 % of control

CC(C)CCNC(=O)NS(=O)(=O)c1ccc(Cl)cc1
inactive: [11] 107 % of control | dose: 200.0 mg/kg/injection, schedule: Q04DX003 (ip), vehicle: saline with Tween-80 97 % of control | dose: 400.0 mg/kg/injection, schedule: Q04DX003 (ip), vehicle: saline with Tween-80 100 % of control

Cc1cc(O)c(O)c(S(=O)(=O)c2ccccc2)c1
inactive: dose: 87.5 mg/kg/injection, schedule: Q01DX009 (ip), vehicle: saline with Tween-80 94 % of control | dose: 175.0 mg/kg/injection, schedule: Q01DX009 (ip), vehicle: saline with Tween-80 96 % of control | dose: 350.0 mg/kg/injection, schedule: Q01DX009 (ip), vehicle: saline with Tween-80 100 % of control

CNC1CCCCC1O (stereo not given)
inactive: [12] 97 % of control | [5] 91 % of control | [6] 94 % of control

Cc1cc(Cl)c(Cl)cc1NC(=O)C(Br)C(Br)c1ccccc1 (stereo not given)
inactive: dose: 100.0 mg/kg/injection, schedule: Q01DX009 (ip), vehicle: other 92 % of control | dose: 200.0 mg/kg/injection, schedule: Q01DX009 (ip), vehicle: other 92 % of control | dose: 400.0 mg/kg/injection, schedule: Q01DX009 (ip), vehicle: other 92 % of control

O=c1[nH]cnc2c1ncn2Cc1cccc(Cl)c1
inactive: dose: 50.0 mg/kg/injection, schedule: Q04DX002 (ip), vehicle: Klucel (hydroxypropylcellulose) (HPC) 86 % of control | [13] 94 % of control | [14] 91 % of control

C=C1[C@@H](C)[C@H]2[C@H](Cc3ccccc3)NC(=O)[C@]23OC(=O)/C=C/[C@H](O)CCC[C@@H](C)C/C=C/[C@H]3[C@@H]1O
inactive: dose: 4.0 mg/kg/injection, schedule: Q04DX002 (ip), vehicle: saline 112 % of control | dose: 8.0 mg/kg/injection, schedule: Q04DX002 (ip), vehicle: saline 98 % of control | dose: 16.0 mg/kg/injection, schedule: Q04DX002 (ip), vehicle: saline 109 % of control | dose: 32.0 mg/kg/injection, schedule: Q04DX002 (ip), vehicle: saline 91 % of control

CSc1nc(C)c(NC(C)=O)c(=O)[nH]1
inactive: [4] 98 % of control | [1] 101 % of control | [2] 98 % of control | [3] 104 % of control

CCOC(Cl)CCl (stereo not given)
inactive: dose: 6.25 mg/kg/injection, schedule: Q01DX009 (ip), vehicle: saline with Tween-80 106 % of control | dose: 12.5 mg/kg/injection, schedule: Q01DX001 (ip), vehicle: saline with Tween-80 97 % of control | dose: 12.5 mg/kg/injection, schedule: Q01DX009 (ip), vehicle: saline with Tween-80 100 % of control | dose: 25.0 mg/kg/injection, schedule: Q01DX001 (ip), vehicle: saline with Tween-80 97 % of control | [8] 108 % of control | dose: 50.0 mg/kg/injection, schedule: Q01DX001 (ip), vehicle: saline with Tween-80 93 % of control and 105 % of control | [9] 101 % of control

Cc1ccc(/C([O-])=C(\C(=S)Nc2cccc(C(F)(F)F)c2)[n+]2ccccc2)cc1
inactive: [15] 103 % of control | [16] 103 % of control | [17] 94 % of control

CCN(CC)CCOC(=O)C(c1ccccc1)C1C=CCCC1 (stereo not given)
inactive: dose: 75.0 mg/kg/injection, schedule: Q01DX001 (ip), vehicle: saline 102 % of control | dose: 150.0 mg/kg/injection, schedule: Q01DX001 (ip), vehicle: saline 92 % of control

COc1cccc(C(=O)O)c1N
inactive: dose: 25.0 mg/kg/injection, schedule: Q01DX001 (ip), vehicle: Klucel (hydroxypropylcellulose) (HPC) 102 % of control | dose: 50.0 mg/kg/injection, schedule: Q01DX001 (ip), vehicle: Klucel (hydroxypropylcellulose) (HPC) 98 % of control | dose: 100.0 mg/kg/injection, schedule: Q01DX001 (ip), vehicle: Klucel (hydroxypropylcellulose) (HPC) 91 % of control

CC(C)c1ccc(NC(=O)c2ccc(Cl)c(Cl)c2)cc1
inactive: [15] 98 % of control | [16] 91 % of control | [17] 93 % of control

c1cc2c3c(c1)nc(CCCc1nc4cccc5c4n1CCC5)n3CCC2
inactive: dose: 25.0 mg/kg/injection, schedule: Q04DX003 (ip), vehicle: saline with Tween-80 109 % of control | dose: 50.0 mg/kg/injection, schedule: Q04DX003 (ip), vehicle: saline with Tween-80 96 % of control | [11] 93 % of control and 87 % of control

CC(C)N1CN(C(C)C)CN(C(C)C)C1
inactive: dose: 25.0 mg/kg/injection, schedule: Q01DX009 (ip), vehicle: saline 103 % of control | dose: 25.0 mg/kg/injection, schedule: Q04DX003 (ip), vehicle: saline 99 % of control | [12] 93 % of control | dose: 50.0 mg/kg/injection, schedule: Q04DX003 (ip), vehicle: saline 99 % of control | [7] 87 % of control

O=C1c2ccccc2C(=O)N1C1CCC(CO)C1 (stereo not given)
inactive: [18] 106 % of control | [19] 102 % of control | [20] 91 % of control

NC(=S)N/N=C\c1nccc2c(C(=O)O)cccc12
inactive: dose: 100.0 mg/kg/injection, schedule: Q04DX002 (ip), vehicle: saline 106 % of control | dose: 200.0 mg/kg/injection, schedule: Q04DX002 (ip), vehicle: saline 106 % of control

COc1ccc(C)cc1NC(=O)Nc1ccc(SC)cc1
inactive: [15] 87 % of control | [16] 95 % of control | [17] 90 % of control

Nc1ccc2c(c1)C(=O)CCCC2
inactive: [18] 102 % of control | [19] 104 % of control | [20] 98 % of control

CCCN1CCC(C(=O)CC)(c2cccc(O)c2)CC1
inactive: [13] 106 % of control | [14] 106 % of control

CC(=O)NC1CCCC(C)C1 (stereo not given)
inactive: [10] 101 % of control | dose: 200.0 mg/kg/injection, schedule: Q01DX009 (ip), vehicle: saline with Tween-80 106 % of control

C(/CCC/C=N/Nc1ccccc1)=N\Nc1ccccc1
inactive: [4] 103 % of control | [1] 100 % of control | [2] 109 % of control | [3] 100 % of control
